Counter-ions that a name gives are not always drawn.
Test system: MTT (mouse pheochromocytoma)
Test: IC50 of cell viability (ATP content)
Details: (24 or 48 h)
In short: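 Library compounds were tested at 8 final concentrations (0.5 nM to 46 µM) on MTT mouse pheochromocytoma cells for 24 or 48 hrs, with readout by CellTiter-Glo ATP luminescence. Signals were normalised with positive-control wells at 100% and DMSO wells at 0%. IC50 values were obtained by a four-parameter logistic fit.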

Row | Structure (SMILES) | IC50 of cell viability [µM]
1 | CCC(=O)O[C@H]1C(O[C@@H]2C(C)[C@H](O[C@H]3C[C@@](C)(OC)C(O)C(C)O3)C(C)C(=O)OC(CC)[C@@](C)(O)C(O)[C@H](C)C(=O)C(C)C[C@]2(C)O)OC(C)CC1N(C)C.CCCCCCCCCCCCO[S+](=O)([O-])O (stereo not given in full) [ERYTHROMYCIN ESTOLATE] | > 46
2 | CCCN[C@@H](C)C(=O)Nc1ccccc1C [Prilocaine hydrochloride] | > 46
3 | C[C@H](CCC(=O)[O-])[C@H]1CC[C@H]2[C@@H]3CC[C@@H]4C[C@H](O)CC[C@]4(C)[C@H]3C[C@H](O)[C@]12C [Deoxycholic acid sodium salt] | > 46
4 | O=C(N/N=C\c1ccc([N+](=O)[O-])o1)c1ccc(O)cc1 [Nifuroxazide] | > 46
5 | CN1\C(=C(\O)C2=CC=CC=C2[S+]1([O-])=O)C(=O)NC3=NC=C(C)S3 [MELOXICAM] | > 46
6 | C#CCN(C)Cc1ccccc1 [Pargyline hydrochloride] | > 46
7 | CN(C1=CC=CC=C1)C(=O)C/2=C(O)/C3=C(C=CC=C3)N(C)C2=O [Linomide] | > 46
8 | CC[C@@]12CCCN3CCc4c(n(c5ccccc45)C(=O)C1)[C@H]32 [Eburnamonine (-)] | > 46
9 | CN1CC(=O)NC1=N [CREATININE] | > 46
10 | CCC(=O)c1ccc2c(c1)N(CCCN1CCN(CCO)CC1)c1ccccc1S2 [CARPHENAZINE MALEATE] | > 46
11 | CC(C)C[C@H](NC(=O)[C@@H](O)[C@H](N)Cc1ccccc1)C(=O)O.Cl [Bestatin hydrochloride] | > 46
12 | OCC(CO)NC1C[C@](O)(CO)[C@@H](O)[C@H](O)[C@H]1O (stereo not given in full) [voglibose] | > 46
13 | CCN(CC)C(=O)/C(C#N)=C/c1cc(O)c(O)c([N+](=O)[O-])c1 [Entacapone] | > 46
14 | C\C(C)=C\[C@@H]1[C@@H](C(=O)OCN2C(=O)CN(CC#C)C2=O)C1(C)C [Imiprothrin] | > 46
15 | Nc1ncnc2c1ncn2[C@@H]1O[C@H](COP(=O)(O)O)[C@@H](O)[C@H]1O [ADENOSINE-5'-MONOPHOSPHATE (AMP)] | > 46
16 | CCCOC(=O)c1ccc(O)cc1 [Propylparaben] | > 46
17 | C=CCCCCCCCCC(=O)OC [METHYL UNDECENOATE] | > 46
18 | O.O=S(=O)([O-])CC(S)CS.[Na+] (stereo not given) [2,3-DIMERCAPTOPROPANE-1-SULFONATE SODIUM] | > 46
19 | S=C(SSC(=S)N1CCCCC1)N1CCCCC1 [Dicyclopentamethylenethiuram disulfide] | > 46
20 | Cc1ncc(C[n+]2csc(CCOP(=O)(O)O)c2C)c(N)n1 [MONOPHOSPHOTHIAMINUM] | > 46
21 | CNC[C@H](O)c1cccc(O)c1 [Fenilefrina] | > 46
22 | O=C(O)Cc1ccccc1 [a-Toluic acid] | > 46
23 | NC1(c2ccccc2)CCCCC1 [1-Phenylcyclohexyl] | > 46
24 | CC(C)Oc1cccc(NC(=O)c2ccccc2C(F)(F)F)c1 [Flutolanil] | > 46

Row | Structure (SMILES) | IC50 of cell viability [µM]
25 | COc1ccc(-c2ccc3cc(C(=O)O)ccc3c2)cc1C12CC3CC(CC(C3)C1)C2 [Adapalene] | > 46
26 | COC1=C2OC(=O)\C=C/C2=CC3=C1OC=C3 [Methoxsalen] | > 46
27 | CCC(=O)OCC(=O)C1(OC(=O)CC)C(C)CC2C3CCC/4=C/C(=O)/C=C\C4(C)C3(Cl)C(O)CC12C (stereo not given) [Beclazone] | > 46
28 | CCCN(CCC)CCc1cccc2c1CC(=O)N2 [ROPINROLE] | > 46
29 | [Na+].CCN1CCN(C(=O)N[C@H](C(=O)N[C@H]2[C@@H]3SC(C)(C)[C@@H]([N@]3C2=O)C([O-])=O)C4=CC=CC=C4)C(=O)C1=O [Piperacillin sodium salt] | > 46
30 | CCCCCOc1ccc(C2SC(=O)NC2=O)cc1OCC (stereo not given) [Risarestat] | > 46
31 | C1CCC(NC2CCCCC2)CC1 [Dicyclohexylamine] | > 46
32 | COP(=S)(OC)Oc1ccc([S+](N)(=O)[O-])cc1 [Cythioate] | > 46
33 | C/C(=C(/CCOC(=O)c1ccccc1)SS/C(CCOC(=O)c1ccccc1)=C(\C)N(C=O)Cc1cnc(C)nc1N)N(C=O)Cc1cnc(C)nc1N [Bisbentiamine] | > 46
34 | CCN(CC)CCC[C@H](C)Nc1c2ccc(Cl)cc2nc2ccc(OC)cc12.Cl.Cl.O.O [Quinacrine dihydrochloride dihydrate] | > 46
35 | C[N@H+]1CC[C@@]23C4OC5=C2C(=CC=C5OC(C)=O)C[C@H]1[C@@H]3\C=C/[C@@H]4OC(C)=O (stereo not given in full) [DIAMORPHINE HYDROCHLORIDE] | > 46
36 | C[C@]\12CCC(=O)\C=C1CCC3C4CC[C@](O)(C(=O)CO)[C@]4(C)CC(=O)C23 (stereo not given in full) [CORTISONE] | > 46
37 | CC(C)NCC(O)COc1ccc(COCCOC(C)C)cc1 (stereo not given) [Bisoprolol hemifumarate salt] | > 46
38 | COc1ccc(C(=O)c2ccccc2O)c(O)c1 [Dioxybenzone] | > 46
39 | C[C@@H]1CC2C3CCC4=CC(=O)C=C[C@]4(C)[C@@]3(F)[C@@H](O)C[C@]2(C)[C@@]1(O)C(=O)COC(=O)c1cccc(S(=O)(=O)[O-])c1 (stereo not given in full) [DEXAMETHASONE METASULFOBENZOATE SODIUM] | > 46
40 | CC[C@H](c1ccc(O)cc1)[C@@H](CC)c1ccc(O)cc1 [Hexestrol] | > 46
41 | CC(C)COC(=O)c1ccc(N)cc1 [Isobutamben] | > 46
42 | Cc1cc(O)ccc1Cl [p-Chloro-m-cresol] | > 46
43 | Cl.OC(CCN1CCCCC1)(c1ccccc1)C1CCCCC1 (stereo not given) [TRIHEXYPHENIDYL HYDROCHLORIDE] | > 46
44 | CN1CCN(CCCN2c3ccccc3Sc3ccc(Cl)cc32)CC1 [Prochlorperazine dimaleate] | > 46
45 | COc1ccc(C[C@H](C)NC[C@@H](O)c2ccc(O)c(NC=O)c2)cc1 [Formoterol hemifumarate] | > 46
46 | NNC(=O)c1ccncc1 [Isoniazid] | > 46
47 | CCC(C(N)=O)N1CCCC1=O (stereo not given) [Etiracetam] | > 46
48 | C[C@@H](CNC1CCCCC1)OC(=O)c1ccccc1 [Hexylcaine hydrochloride] | > 46

Row | Structure (SMILES) | IC50 of cell viability [µM]
49 | CCCCCCCCCCCC(=O)OCC(O)C1OCC(O)C1O (stereo not given) [SORBITANI LAURAS] | > 46
50 | CC(=O)OCC(=O)[C@@]1(O)CC[C@H]2[C@@H]3CCC/4=C/C(=O)CC[C@]4(C)[C@H]3C(=O)C[C@]12C [Cortisone 21-acetate] | > 46
51 | C[C@H](N)C(=O)N[C@@H](C)P(=O)(O)O [ALAFOSFALINUM] | > 46
52 | CC(=O)NC[C@@H]1CN(c2ccc(N3CCOCC3)c(F)c2)C(=O)O1 [Linezolid] | > 46
53 | Nc1nc(N)c(-c2ccccc2)s1 [AMIPHENAZOLUM] | > 46
54 | Cc1nnc(SCC2=C(C(=O)O)N3C(=O)[C@@H](NC(=O)Cn4cnnn4)[C@H]3SC2)s1 [Cefazolin] | > 46
55 | O[C@@H](CNC[C@H](O)[C@H]1CCc2cc(F)ccc2O1)[C@@H]1CCc2cc(F)ccc2O1 (racemic) [rac Nebivolol Hydrochloride] | > 46
56 | O=C1NC(=O)C(c2ccccc2)(c2ccccc2)N1 [PHENYTOIN] | > 46
57 | CC(=O)Nc1ccc(O)cc1 [Acetaminophen (4-hydroxyacetanilide)] | > 46
58 | Cc1ccc([S+](=O)([O-])NC(=O)NN2C[C@H]3CCC[C@@H]3C2)cc1 [Gliclazide] | > 46
59 | CC(C)NCC(O)COc1cccc2[nH]ccc12 (stereo not given) [PINDOLOL] | > 46
60 | CCCCCCCCOC(=O)c1ccccc1C(=O)OCCCCCCCC [Dioctyl phthalate] | > 46
61 | CC(=O)OCC(=O)[C@@]1(O)CCC2C3CCC4=CC(=O)CC[C@]4(C)C3=CC[C@@]21C (stereo not given in full) [ANECORTAVE ACETATE] | > 46
62 | C/C=C/c1ccc(O)c(OC)c1 [Isoeugenol] | > 46
63 | O=[N+]([O-])c1cc(I)c(O)c(I)c1 [DISOPHENOL SODIUM] | > 46
64 | COc1ccc2c(c1OC)CN1CCc3cc4c(cc3[C@H]1C2)OCO4 [(d,l)-Tetrahydroberberine] | > 46
65 | CCCC(=O)O[C@]1(C(=O)CCl)C(C)CC2C3CCC4=CC(=O)C=CC4(C)[C@@]3(F)C(=O)CC21C (stereo not given in full) [CLOBETASONE BUTYRATE] | > 46
66 | O=C(CS)Nc1ccccc1 [Thioglycolic acid anilide] | > 46
67 | O=P([O-])([O-])OC(CO)CO [Glycerol phosphate calcium salt] | > 46
68 | C[C@@H](CN(C)C)CN1c2ccccc2Sc2ccccc21.C[C@@H](CN(C)C)CN1c2ccccc2Sc2ccccc21.O=C(O)[C@@H](O)[C@@H](O)C(=O)O [Trimeprazine tartrate] | > 46
69 | CN1CCC(Nc2ncc3ncnc(Nc4ccc(F)c(Cl)c4)c3n2)CC1 [BIBX 1382 dihydrochloride] | > 46
70 | Cc1cccc(C)c1N(CCCc1cccnc1)C(=O)[C@@H](C)N [Ro 22-9194] | > 46

Source: the supplement of paper PMC3974653
